Test results as given in US6911524B1 (priority 1999, dated 2005).
Bridge positions count the residues as written; N and C are the ends. Peptide text beside a SMILES is read from it.

Columns and labels:
Assay type in all cases: cell-based
[1] = tested on: Perkinsus marinus; assay: Antiprotozoan activity, parasite viability; conditions: Perkinsus marinus in seawater, 1 hour at room temperature, viability by acridine orange / ethidium bromide staining
Experimental: The oyster-parasite protozoan Perkinsus marinus is cultured in DMEM medium (GIBCO), according to the protocol described by GAUTHIER and VASTA [J. Invertebr. Pathol., 66, 156-168, (1995)].
10 μM of purified peptide are added to 4×10^4 P. marinus, in seawater (final volume 20 μl) . The mixture is incubated for 1 hour at room temperature. The viability of the parasites is estimated by staining with acridine orange and with ethidium bromide, as described by MORVAN et al. [J. Invertebr. Pathol., 69, 177-82 (1997)]. The maximum viability is evaluated, as a positive control, in samples to which the peptide has not been added.

[2] = tested on: Micrococcus luteus; assay: Antibacterial assay, MBC determination; conditions: summary of table 1
Experimental: (§1) The minimum […] concentration (MBC) of the peptides was determined according to the protocol described by HANCOCK et al.
(§2) A series of successive doubling dilutions of the peptides, in an aqueous solution containing 0.01% of acetic acid and 0.2% of bovine serum albumin (BSA), is prepared.
(§3) 10 μl aliquots of each dilution are incubated in sterile 96-well polypropylene microtitration plates, in the presence of 100 μl of bacterial suspension at a starting optical density of A600=0.001, in MUELLER HINTON BROTH liquid medium. The incubation is carried out for 18 h at 37° C. with stirring, except in the case of the marine bacteria, for which the incubation is carried out 25° C. The MBC is determined by plating out, onto solid MUELLER HINTON AGAR medium, the content of the wells corresponding to the first 3 dilutions for which no bacterial growth is observed, and incubating at 37° C. for 18 hours. The lowest concentration of peptide which prevents any residual formation of colonies corresponds to the MBC.

[3] = tested on: Escherichia coli D31; assay: Antibacterial assay, MBC determination; conditions: summary of table 1
Experimental: as §1, §2, §3

[4] = tested on: Fusarium oxysporum; assay: Antifungal activity, growth inhibition in liquid phase (MIC); conditions: summary of table 1
Experimental: The antifungal activity was determined by calculating the MIC (minimum inhibitory concentration) in a test of inhibition of Fusarium oxysporum growth in liquid phase, according to the protocol described by FELHBAUM et al. [J. Biol. Chem., 269: 33159-63, (1994)].
A series of successive doubling dilutions of the peptides is prepared as indicated above for determining the antibacterial activity.
80 μl of spores suspended (final concentration 10^4 spores/ml) in Potato Dextrose Broth medium (DIFCO) are added to 10 μl of peptide solution in sterile 96-well polypropylene microtitration plates. The final volume is adjusted to 100 μl by adding water. The growth inhibition is determined after incubation for 24 hours at 25° C. in the dark, by observation under a microscope and measurement of the increase in the OD600. The value of the MIC corresponds to a range (a-b) of peptide concentrations, in which (a) represents the highest concentration at which growth is observed, and (b) represents the lowest concentration which induces 100% growth inhibition.

CSCC[C@@H]1NC(=O)[C@H](CCCCN)NC(=O)CNC(=O)[C@@H]2CCCN2C(=O)[C@H](Cc2c[nH]cn2)NC(=O)[C@H](CC(C)C)NC(=O)[C@H](C(C)C)NC(=O)[C@H](CCCNC(=N)N)NC(=O)[C@@H]2CSSC[C@H](NC(=O)[C@H](C)NC(=O)[C@H](Cc3c[nH]cn3)NC(=O)[C@H](CO)NC(=O)[C@@H](N)Cc3c[nH]cn3)C(=O)N[C@@H]([C@@H](C)O)C(=O)N[C@@H](CO)C(=O)N[C@@H](Cc3ccc(O)cc3)C(=O)N[C@@H](Cc3c[nH]c4ccccc34)C(=O)N[C@H]3CSSC[C@H](NC1=O)C(=O)N[C@@H](C)C(=O)N[C@H]1CSSC[C@H](NC(=O)[C@H](Cc4ccccc4)NC(=O)[C@H](CCCCN)NC(=O)CNC3=O)C(=O)NCC(=O)N[C@@H]([C@@H](C)O)C(=O)N[C@@H](C)C(=O)N[C@@H](CO)C(=O)N[C@@H](CSSC[C@@H](C(=O)N[C@@H](CO)C(=O)N[C@@H](CCCNC(=N)N)C(=O)O)NC(=O)[C@H](Cc3c[nH]cn3)NC(=O)[C@H](C(C)C)NC1=O)C(=O)N[C@@H]([C@@H](C)O)C(=O)N[C@@H](Cc1c[nH]cn1)C(=O)N[C@@H](Cc1ccc(O)cc1)C(=O)N[C@@H](CC(C)C)C(=O)N2 [Myticin a] (H-HSHACTSYWCGKFCGTASCTHYLCRVLHPGKMCACVHCSR-OH; disulfide 5-24, 10-33, 14-35, 19-38; N-terminus and C-terminus assumed)
Antiprotozoan activity (biological activity expressed in μM) [1]: >20 μM

CC(C)C[C@@H]1NC(=O)[C@H](CCCCN)NC(=O)CNC(=O)[C@H](CCCNC(=N)N)NC(=O)[C@H](Cc2c[nH]cn2)NC(=O)[C@H](CC(C)C)NC(=O)[C@H](CC(N)=O)NC(=O)[C@H](CCCNC(=N)N)NC(=O)[C@@H]2CSSC[C@H](NC(=O)[C@@H](NC(=O)[C@H](Cc3c[nH]cn3)NC(=O)[C@@H]3CCCN3C(=O)[C@@H](N)Cc3c[nH]cn3)C(C)C)C(=O)N[C@@H]([C@@H](C)O)C(=O)N[C@@H](CO)C(=O)N[C@@H](Cc3ccc(O)cc3)C(=O)N[C@@H](Cc3ccc(O)cc3)C(=O)N[C@H]3CSSC[C@H](NC1=O)C(=O)N[C@@H](Cc1ccccc1)C(=O)N[C@H]1CSSC[C@H](NC(=O)[C@H](Cc4ccccc4)NC(=O)[C@H](CCCCN)NC(=O)[C@H](CO)NC3=O)C(=O)NCC(=O)N[C@@H]([C@@H](C)O)C(=O)N[C@@H](C)C(=O)NCC(=O)N[C@@H](CSSC[C@@H](C(=O)N[C@@H](CO)C(=O)N[C@@H](CCCNC(=N)N)C(=O)O)NC(=O)[C@H](Cc3c[nH]cn3)NC(=O)[C@H](CC(C)C)NC1=O)C(=O)N[C@@H]([C@@H](C)O)C(=O)N[C@@H](CCCNC(=N)N)C(=O)N[C@@H](Cc1ccc(O)cc1)C(=O)NCC(=O)N2 [Myticin b] (H-HPHVCTSYYCSKFCGTAGCTRYGCRNLHRGKLCFCLHCSR-OH; disulfide 5-24, 10-33, 14-35, 19-38; N-terminus and C-terminus assumed)
Activity on Micrococcus luteus (in words) [2]: more active than the Myticin a peptide | Activity on Escherichia coli compared (in words) [3]: more active than the Myticin a peptide | Activity on Fusarium oxysporum compared (in words) [4]: more active than the Myticin a peptide | Antiprotozoan activity (biological activity expressed in μM) [1]: >20 μM
